Results on four molecules are retold here after patent US20150368692A1, “ANALYSIS OF THE ESTERIFICATION LEVEL OF CEREBROSTEROL AS A TOOL FOR DIAGNOSIS AND/OR PROGNOSIS OF NEURODEGENERATION” (INBIOS S.R.L., priority 2013, published 2015).

In assay [1] the target is T1, LCAT (Homo sapiens, UniProt P04180).
T1 sequence (P04180 25-440): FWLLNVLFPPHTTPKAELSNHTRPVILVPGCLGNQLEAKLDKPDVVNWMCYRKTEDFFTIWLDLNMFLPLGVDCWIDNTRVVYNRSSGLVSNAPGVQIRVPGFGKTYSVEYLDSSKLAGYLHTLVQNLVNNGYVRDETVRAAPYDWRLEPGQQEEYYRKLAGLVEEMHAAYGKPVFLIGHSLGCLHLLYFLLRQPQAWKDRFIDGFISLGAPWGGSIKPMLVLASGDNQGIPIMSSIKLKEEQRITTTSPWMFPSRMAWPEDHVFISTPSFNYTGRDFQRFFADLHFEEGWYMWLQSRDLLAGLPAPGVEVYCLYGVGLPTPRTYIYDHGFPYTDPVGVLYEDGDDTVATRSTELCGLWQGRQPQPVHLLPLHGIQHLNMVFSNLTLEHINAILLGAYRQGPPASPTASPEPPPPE
Nature of the assay: Activity of LCAT in esterifying 3H-24(S)OH-CNE after oxidative treatment of the enzyme. The class given is biochemical. Particulars: 1 mM SIN-1 as oxidant, 20 min pre-incubation, stopped with antioxidant mixture; 2 μM ApoA-I/266 μM phosphatidylcholine; control 19.11±0.49; P=2.4×10^−3. The procedure:
FIG. 5. An outline of the process to which three samples have been subjected is shown at the top. At the bottom, the components of each sample are shown in a table. […] Purified LCAT (250 ng/mL) was pre-incubated and added to the culture medium for cellular incubation (containing ApoA-I/PC) as indicated in the table at the bottom. 1 mM Asc was used to separate the pre-incubation from the incubation in the processes to which the samples were subjected. Each sample was analysed in three separate experiments. The data, expressed as means±SD, were analysed using the Graph Pad Prism 3 program (Graph Pad Software; San Diego, Calif., USA) in order to determine the significance of the difference of B from A and C (P=10^−5).
The purified enzyme LCAT was treated with an oxidative stress system and was then incubated with 24(S)OH—CNE in order to evaluate the efficiency of esterification of this oxysterol. […] The measurement of the absorbance of ABTS^[…]+ (at 414 nm) […], at 30° C., oxidative species which effectively oxidise ABTS and that the addition of 1 mM Asc to the mixture prevents or blocks oxidation of the target. […]

The test system of assay [2] is SH-SY5Y neuronal cells (neuroblastoma line), differentiated with retinoic acid. The assay is described as follows: Incorporation of 3H-24(S)OH-CNE in differentiated SH-SY5Y cells and its esterification in the cells. The assay is classed as cell-based, human. Particulars: 4 h of incubation; for 3H-24(S)OH-CNE incorporated in the cultured cells: 20 μM. As to the method:
FIG. 2. Box A. Cells from the SH-SY5Y cell line were differentiated by incubation with 10 μM of retinoic acid in DMEM containing 0.5% foetal bovine serum, 1% Pen-Strep, 1% L-glutamine, 1% of a mixture of factors known as “N2 medium supplement”, essentially in accordance with a published procedure. The incubation was performed for 3 days at 37° C. in an atmosphere containing 5% CO2 (37° C./5% CO2). 7×10^3 cells were laid in each well of a microplate and then challenged with different concentrations of 24(S)OH—CNE and finally analysed in order to evaluate the survival of the cells, as described in Example 1. Each sample was analysed in three separate experiments. The data are expressed as means±SD (SD=standard deviation). Box B. 20 μM^3H-24(S)OH—CNE (300,000 dpm/mL) was incubated with 250 ng/mL purified LCAT and proteoliposomes containing 2 μM ApoA-I and 266 μM phosphatidylcholine (ApoA-I/PC) in DMEM with 0.5% HSA for various periods of time (from 1 to 6 h) at 37° C./5% CO2. After incubation, the esterified and non-esterified forms of oxysterol were extracted and analysed as described in Example 1. The level of esterification is indicated in terms of percentage of ^3H-24(S)OH-CE. Each sample was analysed in three separate experiments. The data are expressed as means±SD. Box C. Differentiated cells, as in the key of box A, were challenged with 20 μM ^3H-24(S)OH—CNE (300,000 dpm/mL) previously treated or untreated, as described for box B, with LCAT and ApoA-I/PC for 5 h. After various incubation times (from 1 to 6 h), the cells were separated from the culture medium and lysed. The culture medium was analysed in order to measure any unincorporated radioactive material, whereas the lysate was analysed in order to measure any incorporated radioactive material (expressed as % of the sum of incorporated radioactive material plus unincorporated radioactive material). […] Each sample was analysed in three separate experiments. The data are expressed as means±SD.
In Step 1B, 20 μM of ^3H-24(S)OH—CNE (300,000 dpm/mL) was pre-incubated in culture medium (DMEM containing 0.5% HSA) in the presence or absence of 250 ng/mL LCAT, purified in accordance with a published procedure, and proteoliposomes containing ApoA-I and phosphatidylcholine (ApoA-I/PC), prepared in accordance with a published procedure omitting cholesterol. […] In particular, the amount of esterified ^3H-24(S)OH—CNE (that is to say ^3H-24(S)OH-CE) was measured as detailed hereinafter. […] The stationary phase regions harbouring ^3H-24(S)OH-CE (Rf=0.70-0.75) and ^3H-24(S)OH—CNE (Rf=0.25-0.35) were separately removed and then analysed for the radioactivity content thereof by liquid scintillation using the Packard TriCarb 2100TR counter (Global Medical Instrumentation, Ramsey, Mich., USA). […]

The target in assay [3] is T1, LCAT. Nature of the assay: Esterification of 3H-24(S)OH-CNE by purified LCAT with ApoA-I/PC proteoliposomes (TLC, liquid scintillation). The class given is biochemical. Particulars: 20 μM substrate, 250 ng/mL LCAT, proteoliposomes 2 μM ApoA-I/266 μM phosphatidylcholine, 5 h pre-incubation at 37° C./5% CO2. The procedure: FIG. 2. Box A. Cells from the SH-SY5Y cell line were differentiated by incubation with 10 μM of retinoic acid in DMEM containing 0.5% foetal bovine serum, 1% Pen-Strep, 1% L-glutamine, 1% of a mixture of factors known as “N2 medium supplement”, essentially in accordance with a published procedure. The incubation was performed for 3 days at 37° C. in an atmosphere containing 5% CO2 (37° C./5% CO2). 7×10^3 cells were laid in each well of a microplate and then challenged with different concentrations of 24(S)OH—CNE and finally analysed in order to evaluate the survival of the cells, as described in Example 1. Each sample was analysed in three separate experiments. The data are expressed as means±SD (SD=standard deviation). […] After incubation, the esterified and non-esterified forms of oxysterol were extracted and analysed as described in Example 1. […] Each sample was analysed in three separate experiments. The data are expressed as means±SD. […] The culture medium was analysed in order to measure any unincorporated radioactive material, whereas the lysate was analysed in order to measure any incorporated radioactive material (expressed as % of the sum of incorporated radioactive material plus unincorporated radioactive material). […] Each sample was analysed in three separate experiments. The data are expressed as means±SD. […]

Assay [4] deals with SH-SY5Y neuronal cells (neuroblastoma line), differentiated with retinoic acid. Nature of the assay: Survival of differentiated SH-SY5Y neuronal cells (Crystal Violet staining, absorbance at 595 nm). The assay is classed as cell-based, human. Particulars: for cells survived after incubation: 5 h at 37° C./5% CO2 in DMEM and 0.5% HSA, then 16 h in fresh medium. The procedure:
FIG. 2. Box A. Cells from the SH-SY5Y cell line were differentiated by incubation with 10 μM of retinoic acid in DMEM containing 0.5% foetal bovine serum, 1% Pen-Strep, 1% L-glutamine, 1% of a mixture of factors known as “N2 medium supplement”, essentially in accordance with a published procedure. The incubation was performed for 3 days at 37° C. in an atmosphere containing 5% CO2 (37° C./5% CO2). 7×10^3 cells were laid in each well of a microplate and then challenged with different concentrations of 24(S)OH—CNE and finally analysed in order to evaluate the survival of the cells, as described in Example 1. Each sample was analysed in three separate experiments. The data are expressed as means±SD (SD=standard deviation). Box B. 20 μM^3H-24(S)OH—CNE (300,000 dpm/mL) was incubated with 250 ng/mL purified LCAT and proteoliposomes containing 2 μM ApoA-I and 266 μM phosphatidylcholine (ApoA-I/PC) in DMEM with 0.5% HSA for various periods of time (from 1 to 6 h) at 37° C./5% CO2. After incubation, the esterified and non-esterified forms of oxysterol were extracted and analysed as described in Example 1. The level of esterification is indicated in terms of percentage of ^3H-24(S)OH-CE. Each sample was analysed in three separate experiments. The data are expressed as means±SD. Box C. Differentiated cells, as in the key of box A, were challenged with 20 μM ^3H-24(S)OH—CNE (300,000 dpm/mL) previously treated or untreated, as described for box B, with LCAT and ApoA-I/PC for 5 h. […] The culture medium was analysed in order to measure any unincorporated radioactive material, whereas the lysate was analysed in order to measure any incorporated radioactive material (expressed as % of the sum of incorporated radioactive material plus unincorporated radioactive material). […] Each sample was analysed in three separate experiments. The data are expressed as means±SD.
FIG. 3. […] Cellular survival after 5 h of incubation at 37° C./5% CO2, was evaluated as described in Example 1. Each sample was analysed in three separate experiments. The data are expressed as means±SD. […]

Where [5] appears, read: medium pre-incubated in the presence of LCAT and proteoliposomes.
Setting [6] is: medium pre-incubated without LCAT and proteoliposomes.

On to `[NH-]c1c[n+](N2CCOCC2)no1` [SIN-1, 3-morpholino-sidnonimine], for which the “LCAT activity of esterification of 24(S)OH-CNE (mean±SD)” value at LCAT [1] stood at 12.77 ± 0.78 nmol/h/mL.
For the molecule `[3H]C(C([3H])[C@@H](C)[C@H]1CC[C@H]2[C@@H]3CC=C4C[C@@H](O)CC[C@]4(C)[C@H]3CC[C@]12C)[C@H](O)C(C)C` (stereo partly drawn) [^3H-24(S)OH—CNE], the “percentage of 3H-24(S)OH-CE in the cells” value in assay [2] (setting [5]) was “approximately 50%”; in assay [2] (setting [6]) it was “approximately 60%”. Further, the “3H-24(S)OH-CNE incorporated in the cultured cells” value in assay [2] (setting [5]) worked out at 6%; in assay [2] (setting [6]), 14%. For the same molecule, the “3H-24(S)OH-CNE found esterified by LCAT (mean±SD)” value at LCAT [3] came to 49.3±2.8%.
As for `CC(C)[C@@H](O)CC[C@@H](C)[C@H]1CC[C@H]2[C@@H]3CC=C4C[C@@H](O)CC[C@]4(C)[C@H]3CC[C@]12C` [24(S)OH—CNE, cerebrosterol], the “cells survived after incubation” value is on record as 58% in assay [4] (10 μM 24(S)OH-CNE) and 43% in assay [4] (20 μM 24(S)OH-CNE).

B1: LCAT: lecithin-cholesterol acyltransferase, E.C. 2.3.1.43; purified enzyme, used at 250 ng/mL (protein, UniProt P04180 25-440, looked up)
Phosphatidylcholine-sterol …: T1 sequence (P04180 25-440)
In the case of B1, the “effect of LCAT treatment of the culture medium on the toxic effect of 24(S)OH-CNE on the cells” value in assay [4] (20 μM 24(S)OH-CNE pre-incubated 5 h with LCAT and proteoliposomes, cells 5 h, then 16 h fresh medium, versus control treatment without LCAT) is “significantly reduced the toxic effect”.
